Where two headings read alike, the source gives them in different places.
What was measured:
[1] = in vitro; format: in vitro ADME, human
[2] = in vitro; format: in vitro ADME, mouse
[3] = Metabolic stability assay, human microsomes; format: in vitro ADME; settings: for half-life at 10 µM: both sexes
[4] = Metabolic stability assay, CD-1 mouse microsomes; format: in vitro ADME
[5] = Pharmacokinetic study after single i.v. and p.o. administration in male SD rats; format: in vivo; settings: rat; for Cmax / Tmax / C0 / half-life / bioavailability: male, SD, plasma; for C0: extrapolated to tzero; for half-life: read-out: T1/2 (terminal) (converted)
Method: 5. Pharmacokinetic Study (PK) Analysis
Pharmacokinetic analyses after single intravenous (i.v.) and two different peroral (p.o.) administrations were performed for the test compounds. 240 grams (±10 gram) male SD rats were catheterized and used in the study. The vehicle, Solutol HS-15/0.9% saline (5:95), was added to give a final concentration of 0.33 mg/ml of the compounds for i.v. application, and 0.5 or 2.0 mg/ml for p.o. applications. The volumes used for applications were 3 ml/kg i.v. and 10 ml/kg p.o. resulting in a final dose of 1 mg/kg for the intravenous dose and 5 or 20 mg/kg for the peroral doses.
Blood samples were withdrawn via the catheter at 1) predose, 5, 15, 30, 60, 120, 240, and 480 minutes for the i.v. application and 2) predose, 15, 30, 60, 120, 240, 480 and 720 minutes for the p.o. applications. Plasma was prepared by centrifugation of heparinized whole blood. Plasma samples (˜120 μl each time point, Li-Heparin, 20 IE/ml) were stored at −80° C. until HPLC-MSMS analysis.
Preparation of the Plasma Calibration Samples:
“Blank” rat plasma from untreated animals was used. Aliquots of plasma of 50 μL each were spiked with Internal Standard (ISTD) and with known amounts test compounds in order to obtain 11 plasma calibration samples in the range 0.25-4000 ng/mL.
Preparation of Plasma Samples:
To 50 μL of sample from treated animals 20 μL of internal standard were added. After mixing with 200 μL of acetonitrile, 2% HCOOH were added and each sample was vortexed for several seconds. Precipitated material was removed by centrifugation for 10 min (13200 rpm), the supernatant removed and dried under a constant flow of N2 (Porvair, MiniVap). To reconstitute the dried samples, 200 μL of [DMSO/acetonitrile/H2O, 4/4/2 (v/v/v)+2% HCOOH] were added and the sample was shaken for at least 5 minutes.
LC-MSMS Analysis of Samples:
Reconstituted samples were analysed by HPLC/MSMS on a reverse phase analytical column (BEH C18, 100×2.1 mm, 1.7 μm, Waters). Mobile phase A: H2O/acetonitrile (95:5, v:v) 0.1% formic acid, mobile phase B: Acetonitrile/H2O (95:5, v:v) 0.1% formic acid. Compounds were eluted from the column by using a gradient from 1% B to 60% B in 2.5 min.).
Pharmacokinetic Evaluation:
PK analysis was performed on mean values (generally n=3) using WinNonLin software (Version 5.3, Pharsight Corporation). The area under the curve AUC was calculated by the linear trapezoidal rule (linear interpolation, uniform weighting). AUC(t-∞) was estimated as Ct/b (b: elimination rate constant). […] the sum of AUC(0-t) and AUC(t-∞). Elimination half-life was calculated by the linear regression on at least three data points during the elimination phase. The time intervals selected for the half-life determinations were evaluated by the correlation coefficient (r^2), which should be at least above 0.85 and ideally above 0.96.
In case of i.v. administration the initial concentration at tzero was determined by extrapolation of the curve through the first two time points. Finally bioavailability after p.o. administration was calculated from the dose normalized AUC(0-∞) ration after p.o. versus i.v. administration.

[6] = Metabolic stability assay, rat microsomes (values in parentheses); format: in vitro ADME; settings: value in parentheses; for half-life at 10 µM: read-out: Metabolic Stability T½ [min] (rat)
[7] = both, CD-1, mouse, plasma, 10 µM
[8] = both, CD-1, mouse, plasma, 4 h, 10 µM
[9] = both, human, microsomes, 1 h, 10 µM
[10] = both, CD-1, mouse, microsomes, 10 µM
[11] = both, CD-1, mouse, microsomes, 1 h, 10 µM
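Wherever Plasma Stability 240 min mouse [% remain.] is given: sodium citrate stabilized mouse plasma, parent compound quantified by HPLC/MS/MS relative to its peak area at time zero, run in triplicate.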
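Wherever Plasma Stability T½ [min] mouse is given: sodium citrate stabilized mouse plasma, parent compound quantified by HPLC/MS/MS relative to its peak area at time zero, run in triplicate.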

Structure (SMILES) | Plasma Stability T½ [min] hum ([1]; human, plasma, 10 µM) | Plasma Stability 240 min hum [% remain.] ([1]; human, plasma, 4 h, 10 µM) | Plasma Stability T½ [min] mouse [2, 7] | Plasma Stability 240 min mouse [% remain.] [2, 8] | half-life at 10 µM ([3]; human, microsomes) | Metabolic Stability 60 min hum [% remain.] [3, 9] | Metabolic Stability T½ [min] mouse [4, 10] | Metabolic Stability 60 min mouse [% remain.] [4, 11] | Metabolic Stability 60 min (rat) [% remain.] [6] | Metabolic Stability T½ [min] hum ([3]; both, human, microsomes, 10 µM) | Metabolic Stability T½ [min] (rat) [6] | further results
CN1CCC[C@H](N)C(=O)N2C[C@@H](Oc3ccccc3)C[C@H]2COc2cccc(c2)C1=O [Ex. 561, (4S,6S,10S)-10-amino-14-methyl-6-phenoxy-2-oxa-8,14-diazatricyclo[14.3.1.0^4,8]icosa-1(20),16,18-triene-9,15-dione] | > 240 min | 99 % remain. | > 240 min | 100 % remain. | 0.65 h | 42 % remain. | > 60 min | 79 % remain. | 53 % remain. | – | – | Cmax ([5]; iv, 1 mg/kg): 184 ng/mL; Tmax ([5]; iv, 1 mg/kg): 0.08 h; C0 ([5]; iv, 1 mg/kg): 240 ng/mL; half-life ([5]; iv, 1 mg/kg): 2.11 h; Cmax ([5]; po, 5 mg/kg): 67 ng/mL; Tmax ([5]; po, 5 mg/kg): 0.5 h; bioavailability ([5]; po, 5 mg/kg): 10.9%; half-life ([5]; po, 5 mg/kg): 3 h; Cmax ([5]; po, 20 mg/kg): 248 ng/mL; Tmax ([5]; po, 20 mg/kg): 0.25 h; bioavailability ([5]; po, 20 mg/kg): 16.8%; half-life ([5]; po, 20 mg/kg): 2.71 h; AUC(t-∞) dose normalized ([5]; iv, 1 mg/kg): 219.89 kg·ng·h/mL/mg; Cmax dose normalized ([5]; iv, 1 mg/kg): 183.67 kg·ng/mL/mg; V (terminal) ([5]; iv, 1 mg/kg): 13.8314 L/kg; AUC(t-∞) dose normalized ([5]; po, 5 mg/kg): 24.00 kg·ng·h/mL/mg; Cmax dose normalized ([5]; po, 5 mg/kg): 13.40 kg·ng/mL/mg; AUC(t-∞) dose normalized ([5]; po, 20 mg/kg): 36.88 kg·ng·h/mL/mg; Cmax dose normalized ([5]; po, 20 mg/kg): 12.40 kg·ng/mL/mg; half-life at 10 µM [6]: 56 min
CN1CCC[C@H](NC(=O)Cc2ccccc2)C(=O)N[C@H]2CN[C@H](COc3ccc(F)cc3C1=O)C2 [Ex. 406, N-[(1S,15S,18R)-7-fluoro-11-methyl-10,16-dioxo-3-oxa-11,17,20-triazatricyclo[16.2.1.0^4,9]henicosa-4,6,8-trien-15-yl]-2-phenylacetamide] | > 240 min | 75 % remain. | > 240 min | 89 % remain. | – | 77 % remain. | > 60 min | 94 % remain. | 96 % remain. | > 60 min | 60 (60) min | –
CN1CCC[C@H](N)C(=O)N2C[C@@H](OCc3ccc(-c4ccccc4)cc3)C[C@H]2COc2cccc(c2)C1=O [Ex. 570, (4S,65,10S)-10-amino-6-([1,1′-biphenyl]-4-ylmethoxy)-14-methyl-2-oxa-8,14-diazatricyclo[14.3.1.0^4,8]icosa-1(20),16,18-triene-9,15-dione] | – | – | – | – | – | – | – | – | 76 % remain. | – | 60 (60) min | Plasma Stability 240 min hum [% remain.] ([1]; human plasma, 240 min): 92 % remain.; Plasma Stability T½ [min] hum ([1]; human, plasma): > 240 min; Plasma Stability 240 min mouse [% remain.] ([2]; mouse plasma, 240 min): 100 % remain.; Plasma Stability T½ [min] mouse ([2]; mouse, plasma): > 240 min; Metabolic Stability 60 min hum [% remain.] ([3]; human microsomes, 60 min): 20 % remain.; Metabolic Stability T½ [min] hum ([3]; human, microsomes): 13 min; Metabolic Stability 60 min mouse [% remain.] ([4]; mouse microsomes, 60 min): 69 % remain.; Metabolic Stability T½ [min] mouse ([4]; mouse, microsomes): > 60 min

Second part, led by results:

Plasma Stability T½ [min] hum ([1]; human, plasma, 10 µM) | Plasma Stability 240 min hum [% remain.] ([1]; human, plasma, 4 h, 10 µM) | Plasma Stability T½ [min] mouse [2, 7] | Plasma Stability 240 min mouse [% remain.] [2, 8] | half-life at 10 µM ([3]; human, microsomes) | Metabolic Stability 60 min hum [% remain.] [3, 9] | Metabolic Stability T½ [min] mouse [4, 10] | Metabolic Stability 60 min mouse [% remain.] [4, 11] | Metabolic Stability 60 min (rat) [% remain.] [6] | Metabolic Stability T½ [min] hum ([3]; both, human, microsomes, 10 µM) | Metabolic Stability T½ [min] (rat) [6] | Structure (SMILES) | further results
> 240 min | 88 % remain. | > 240 min | 81 % remain. | 0.133 h | 1 % remain. | – | 4 % remain. | 32 % remain. | – | – | CN1CCC[C@H](NCC(C)(C)C)C(=O)N2C[C@@H](Oc3ccccc3)C[C@H]2COc2cccc(c2)C1=O [Ex. 563, (4S,6S,10S)-14-methyl-10-(neopentylamino)-6-phenoxy-2-oxa-8,14-diazatricyclo[14.3.1.0^4,8]icosa-1(20),16,18-triene-9,15-dione] | half-life at 10 µM ([4]; both sexes, CD-1, mouse, microsomes): 0.2 h; half-life at 10 µM [6]: 31 min
> 240 min | 97 % remain. | > 240 min | 89 % remain. | – | 53 % remain. | > 60 min | 60 % remain. | 57 % remain. | > 60 min | 60 (60) min | CN1CCC[C@H](N)C(=O)N2C[C@@H](OCc3ccccc3)C[C@H]2COc2cccc(c2)C1=O [Ex. 568, (4S,6S,10S)-10-amino-6-(benzyloxy)-14-methyl-2-oxa-8,14-diazatricyclo[14.3.1.0^4,8]icosa-1(20),16,18-triene-9,15-dione] | Cmax ([5]; iv, 1 mg/kg): 195 ng/mL; Tmax ([5]; iv, 1 mg/kg): 0.08 h; C0 ([5]; iv, 1 mg/kg): 285 ng/mL; half-life ([5]; iv, 1 mg/kg): 1.67 h; Cmax ([5]; po, 5 mg/kg): 64.3 ng/mL; Tmax ([5]; po, 5 mg/kg): 0.25 h; bioavailability ([5]; po, 5 mg/kg): 17.8%; half-life ([5]; po, 5 mg/kg): 1.92 h; Cmax ([5]; po, 20 mg/kg): 380 ng/mL; Tmax ([5]; po, 20 mg/kg): 0.25 h; bioavailability ([5]; po, 20 mg/kg): 21.6%; half-life ([5]; po, 20 mg/kg): 2.07 h; AUC(t-∞) dose normalized ([5]; iv, 1 mg/kg): 167.93 kg·ng·h/mL/mg; Cmax dose normalized ([5]; iv, 1 mg/kg): 194.67 kg·ng/mL/mg; V (terminal) ([5]; iv, 1 mg/kg): 14.32056 L/kg; AUC(t-∞) dose normalized ([5]; po, 5 mg/kg): 29.83 kg·ng·h/mL/mg; Cmax dose normalized ([5]; po, 5 mg/kg): 12.87 kg·ng/mL/mg; AUC(t-∞) dose normalized ([5]; po, 20 mg/kg): 36.22 kg·ng·h/mL/mg; Cmax dose normalized ([5]; po, 20 mg/kg): 18.98 kg·ng/mL/mg
> 240 min | 91 % remain. | > 240 min | 95 % remain. | – | 94 % remain. | > 60 min | 93 % remain. | 92 % remain. | > 60 min | 60 (60) min | CN1CCC[C@H](NC(=O)Cc2ccccc2)C(=O)N2C[C@@H](O)C[C@H]2COc2cccc(c2)C1=O [Ex. 574, N-[(4S,6S,10S)-6-hydroxy-14-methyl-9,15-dioxo-2-oxa-8,14-diazatricyclo[14.3.1.0^4,8]icosa-1(20),16,18-trien-10-yl]-2-phenylacetamide] | –
> 240 min | 85 % remain. | > 240 min | 100 % remain. | 0.9 h | 49 % remain. | > 60 min | 54 % remain. | 92 % remain. | – | 60 (60) min | CO[C@H]1C[C@H]2COc3cccc(c3)C(=O)N(C)CCC[C@H](NC(=O)CC(C)(C)C)C(=O)N2C1 [Ex. 572, N-[(4S,6S,10S)-6-methoxy-14-methyl-9,15-dioxo-2-oxa-8,14-diazatricyclo[14.3.1.0^4,8]icosa-1(20),16,18-trien-10-yl]-3,3-dimethylbutanamide] | –
